# From patent US11447638B2, “Acetalanthraquinone derivatives useful for cellular staining” (BIOSTATUS LIMITED, priority 2016, dated 2022)
# pIC50: −log10 of the molar value.
# Legend:
# [1] = tested on: fixed human osteosarcoma U-2 OS cells; experiment: Labelling of fixed cells, wide-field fluorescence microscopy; type: cell-based; details: 20 μM, 1 h exposure in PBS, FIG. 2
# Outline: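 U-2 OS cells fixed 24 or 48 h after seeding with 4% paraformaldehyde for 30 min, then labelled with AAQ agents at 20 μM (DRAQ5 20 μM as reference) in PBS at 37° C in the dark. Imaged without washing after 1 h by wide-field fluorescence, ×10 0.3 NA objective, for red signal and cellular location.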
# [2] = tested on: A549 live cells; experiment: Loading of A549 live cells, wide-field fluorescence microscopy; type: cell-based, human; details: 20 μM, 30 min incubation, FIG. 3
# Outline: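 Live A549 cells incubated 30 min at 37° C. in the dark with compound at 20 μM (DRAQ5 at 20 μM as reference), imaged unwashed. Uptake and localisation of red fluorescence assessed by low-resolution wide-field fluorescence microscopy, ×10 0.3 NA objective, 30 ms exposure.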
# [3] = tested on: A549 cells; experiment: Pulse exposure to probes, time-lapse, reimaged after 72 h; type: cell-based, human; details: 20 uM for 15 mins, washout, T=72 h
# Description: In this regard, A549 cells were seeded in a 24 well coverslip bottomed-plate, cultured overnight in McCoys media for 24 or 48 hours. The plates were placed onto an inverted automated microscope, with the capacity for acquiring an image sequence of different wells (therefore exposure to different agent labelling). An Axiovert 100 microscope (Carl Zeiss, Welwyn Garden City, UK) was fitted with an incubator for 37° C./5% CO2 maintenance (Solent Scientific, Portsmouth, UK), and an ORCA-ER CCD camera (Hamamatsu, Reading, UK). Illumination was controlled by a shutter in front of the transmission lamp, and an x, y positioning stage with separate z-focus (Prior Scientific, Cambridge, UK) controlled multi-field acquisition. Image capture was controlled using Metamorph software.
# Cells were exposed to a constant dose (0-5 μM) or a pulsed dose of 0 or 20 μM agent for 15 minutes followed by washout with warmed full media.
# All images were collected with a ×10 (PH1) apochromat objective lens providing a field size of 500 times 500 microns. In this case a phase contrast image was collected every 30 minutes for 72 hours. Single cell growth and expansion can be tracked over time. The cells were harvested and run through a flow cytometry (typically a FACS Calibur 635 nm excitation/661/16 emission).
# A549 cells were loaded with 20 uM BST-101, BST-109 or BST-110 for 15 mins followed by washout. Cells were then time-lapsed and reimaged after T=72 h, as before, […]
# [4] = tested on: MCF7; experiment: MTT cellular viability (growth inhibition) assay, MCF7; type: cell-based; details: Homo sapiens, 0.25-100 μM, 72 h, Table 3
# Outline: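 Cells seeded at 1×10^4 cells/mL in R10, allowed to adhere overnight at 37 °C, 5% CO2. Compounds tested at 0.25–100 μM for 72 h; MTT read-out gave growth-inhibition IC50.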
pIC50 [4],SMILES,staining pattern in fixed cells [1],fluorescence brightness / background in live cells [2],cell division and signal retention / location after pulse exposure [3],fluorescence brightness / background in fixed cells [1]
4.80,"COC(CNC(=O)CCNc1ccc(NCCN(C)C)c2c1C(=O)c1ccccc1C2=O)OC [BST-109, N-(2,2-Dimethoxyethyl)-3-(4-(2-(dimethylamino)ethylamino)-9,10-dioxo-9,10-dihydroanthracen-1-ylamino)propanamide]",heterogeneity in cytoplasmic staining and positive spots in the nuclei,very bright cellular fluorescence,"dividing, and signal retained but now relocated in a non-nuclear compartment perinuclear",
4.71,"COC(CC(=O)NCCNc1ccc(NCCN(C)C)c2c1C(=O)c1ccccc1C2=O)OC [BST-110, N-(2-(4-(2-(dimethylamino)ethylamino)-9,10-dioxo-9,10-dihydroanthracen-1-ylamino)ethyl)-3,3-dimethoxypropanamide]",cytoplasmic staining and heterogeneity on labelling of mitotic figures,very bright cellular fluorescence,"dividing, and signal now relocated in a non-nuclear compartment perinuclear",very high background fluorescence
